{"source": "ChEMBL document CHEMBL3046230", "about": "“Diversity and antifeedant activity of diterpenes from Turkish species of Sideritis” (2000)", "type_in_all_cases": "functional", "key": {"[1]": {"system": "Spodoptera frugiperda", "test": "Antifeedant activity against Spodoptera frugiperda (fall armyworm) assessed as feeding index at 100 ppm after 18 hr relative to control"}, "[2]": {"system": "Spodoptera littoralis", "test": "Phagostimulant activity against Spodoptera littoralis assessed as feeding index at 100 ppm after 18 hr relative to control"}, "[3]": {"system": "Spodoptera littoralis", "test": "Antifeedant activity against Spodoptera littoralis assessed as feeding index at 100 ppm after 18 hr relative to control"}}}
{"compound": "CC(=O)OC[C@]1(C)[C@H]2C[C@H](O)[C@]34C=C(C)[C@H](CC[C@H]3[C@]2(C)CC[C@H]1O)C4", "values": [{"measurement": "AFI", "setting": "[1]", "value": 12, "unit": "%"}]}
{"compound": "C=C1C[C@]23C[C@H]1CC[C@H]2[C@]1(C)CC[C@@H](O)[C@](C)(CO)[C@H]1C[C@@H]3O", "values": [{"measurement": "FI", "setting": "[2]", "value": 52}, {"measurement": "AFI", "setting": "[1]", "value": 21, "unit": "%"}]}
{"compound": "CC1=C[C@]23C[C@H]1CC[C@H]2[C@]1(C)CCC[C@](C)(CO)[C@H]1C[C@@H]3O", "values": [{"measurement": "AFI", "setting": "[1]", "value": 13, "unit": "%"}, {"measurement": "AFI", "setting": "[3]", "value": 27, "unit": "%"}]}
{"compound": "C=C1C[C@@]23C[C@@H]1CC[C@H]2[C@]1(C)CC[C@@H](O)[C@](C)(COC(C)=O)[C@@H]1C[C@@H]3O", "note": "[LINEAROL]", "values": [{"measurement": "AFI", "setting": "[1]", "value": 8, "unit": "%"}]}
{"compound": "C[C@]1(CO)CCC[C@]2(C)[C@H]1C[C@H](O)[C@@]13C[C@@H](CC[C@@H]21)[C@]1(C)O[C@@H]13", "note": "[SIDEROXOL]", "values": [{"measurement": "AFI", "setting": "[1]", "value": 54, "unit": "%"}, {"measurement": "AFI", "setting": "[3]", "value": 9, "unit": "%"}]}
